ChEMBL document CHEMBL1122382, “An evaluation of certain chain-extended analogues of 9-beta-D-arabinofuranosyladenine for antiviral and cardiovascular activity” (1983)

How the values were obtained:
[1] = system: Canis familiaris; experiment: Compound was evaluated for the cardiovascular activity, expressed as maximum % response achieved with standard (administered intravenously at a dose of 0.10 mg/kg) at a dose of 1.0 mg/kg of the compound; assay type: functional, Canis lupus familiaris, Heart
[2] = system: Human alphaherpesvirus 1; experiment: Compound was evaluated for virus rating (VR) which is the weighted measurement of in vitro antiviral activity, based on the inhibition of HSV-1 virus-induced cytopathogenic effects. VR > 1, active; assay type: functional
[3] = system: Human alphaherpesvirus 1; experiment: Antiviral activity against herpes simplex virus type 1 (strain 377).; assay type: functional; settings: read-out: ID50 (the source's name)
[4] = system: Human alphaherpesvirus 1; experiment: Antiviral activity against herpes simplex virus type 1 (strain HF).; assay type: functional; settings: read-out: ID50 (the source's name)
[5] = system: Human alphaherpesvirus 1; experiment: Virus rating (VR) which is the weighted measurement of in vitro antiviral activity, based on the inhibition of virus-induced cytopathogenic effects. VR > 1, active.; assay type: functional
[6] = Compound was evaluated for antiviral activity expressed as ID50 for the inhibition of cellular DNA and protein synthesis in wild-type cells; assay type: functional; settings: read-out: ID50 (the source's name)
[7] = system: Ara-A; experiment: Compound was evaluated for antiviral activity expressed as ID50 for the inhibition of cellular DNA and protein synthesis in ara-A resistant cells; assay type: functional; settings: Homo sapiens; read-out: ID50 (the source's name)
[8] = Compound was evaluated for in vitro therapeutic index ratio of the ID50 for inhibition of cellular DNA and protein synthesis to the ID50 for inhibition of virus replication; assay type: functional
[9] = system: Canis familiaris; experiment: Compound was evaluated for the cardiovascular activity, expressed as maximum percent response achieved with standard (administered intravenously at a dose of 0.10 mg/kg) at a dose of 1.0 mg/kg of compound; assay type: functional, Canis lupus familiaris, Heart
[10] = system: Human alphaherpesvirus 1; experiment: Virus rating (VR) which is the weighted measurement of in vitro antiviral activity, based on the inhibition of HSV-1 virus-induced cytopathogenic effects. VR > 1, active.; assay type: functional
[11] = Compound was evaluated for antiviral activity of the compound, expressed as ID50 for the inhibition of cellular DNA and protein synthesis in wild-type cells; assay type: functional; settings: read-out: ID50 (the source's name)
[12] = system: Ara-A; experiment: Compound was evaluated for antiviral activity of the compound, expressed as ID50 for the inhibition of cellular DNA and protein synthesis in ara-A resistant cells; assay type: functional; settings: Homo sapiens; read-out: ID50 (the source's name)
[13] = system: Human alphaherpesvirus 1; experiment: Compound was evaluated for virus rating (VR) which is the weighted measurement of in vitro antiviral activity, based on the inhibition of HSV-1 virus-induced cytopathogenic effects. VR = 0.5-0.9 indicates marginal activity; assay type: functional

Row | Compound | IC50 [3] [µM] | IC50 [4] [µM] | VR [5] | Ratio [8] | further results
1 | CCOC(=O)CC[C@H]1OC(n2cnc3c(N)ncnc32)[C@@H](O)[C@@H]1O (some centres undefined) | 729 | – | – | – | Response [1]: 39%; VR [2]: 1
2 | Nc1ncnc2c1ncn2[C@@H]1O[C@H](CO)[C@@H](O)[C@H]1O [ADENOSINE] | 22 | 42 | 2.5 | 3.1 | IC50 [6]: 2.4 µM; IC50 [7]: 242 µM
3 | NC(=O)CC[C@H]1OC(n2cnc3c(N)ncnc32)[C@@H](O)[C@@H]1O (some centres undefined) | 574 | – | 1.6 | – | Response [9]: 10%
4 | Nc1ncnc2c1ncn2C1O[C@H](CCCO)[C@@H](O)[C@@H]1O (some centres undefined) | 643 | 525 | – | 2.1 | VR [10]: 1.5; IC50 [11]: 1880 µM; IC50 [12]: 1510 µM
5 | Nc1ncnc2c1ncn2C1O[C@H](CCC(=O)O)[C@@H](O)[C@@H]1O (some centres undefined) | – | – | – | – | VR [13]: 0.3
